# Earlier results as cited in US20070134341A1, “COMPOSITIONS OF LIPOXYGENASE INHIBITORS” (priority 2005, published 2007).
smiles,measurement,setting,value
"CC(c1cc2ccccc2s1)N(O)C(N)=O (racemic) [Zileuton, (±)-1-(1-benzo[b]thien-2-ylethyl)-1-hydroxyurea]",solubility in acetonitrile,acetonitrile,slightly soluble
same,solubility in ethanol,ethanol,soluble
same,solubility in hexane,hexane,practically insoluble
same,solubility in methanol,methanol,soluble
same,solubility in water,water,practically insoluble
same,water solubility,"water, 25° C.",80 to 140 µg/mL
